Experiments:
AMPA receptor = experiment: Electrophysiological whole cell patch clamp experiments: potentiation of AMPA-induced current; format: cell-based, mouse; details: for concentration dependence of the potentiating effect: Compound 23a at 10, 30 and 100 μM, Compound 27a at 0.1-100 μM, 30 μM AMPA; for effect on the current induced by application of 30 μM AMPA: cultured mouse neocortical neurons, voltage clamp -60 mV, AMPA 30 μM for 1 second every 45 seconds, test concentrations per FIGS. 2-8 (Cpd 21 15 μM; 22, 24, 25 10 μM; 23a 10-100 μM; 26 3 μM; 27a 0.1-100 μM)
Experimental: Electrophysiological Patch Clamp Experiments
Experiments were performed in voltage clamp using conventional whole cell patch clamp methods (see Hamill O P, Marty A, Neher E, Sakmann B & Sigworth F J: Improved patch-clamp techniques for high-resolution current recording from cells and cell-free membrane patches; Pflügers Arch. 1981 39 85–100), essentially as described Mathiesen et al. (Mathiesen C, Varming T & Jensen L H: In vivo and in vitro evaluation of AMPA receptor antagonists in rat hippocampal neurones and cultured mouse cortical neurons; Eur. J. Pharmacol. 1998 353 159–167).
The following salt solutions were used (mM): NaCl (140), KCl (4), CaCl2 (2), MgCl2 (1), Sucrose (30; Available from Fluka Chemie, Buchs, Switzerland), Tetrodotoxin (0.0003; Available from Alomone Labs, Jerusalem, Israel), Bicuculline Methiodide (0.005; Available from RBI, MA, USA) and HEPES (10, pH 7.4).
Intracellular solution (mM): CsCl (120), CsF (20), MgCl2 (2), EGTA (10), ATP (4), HEPES (10, pH=7.2).
Cell cultures: Mouse neocortical neurons were cultured essentially as described by Drejer et al. (Drejer J, Honoré T & Schousboe A: Excitatory amino acid-induced release of ^3H-GABA from cultured mouse cerebral cortex interneurons; J. Neurosci. 1987 7 2910–2916).
Briefly, the forebrains from embryonic (E17) NMRI mice were removed under sterile conditions. Pregnant (9 days) NMRI mice were obtained from Bomholtgaard Breeding and Research Center, Ry, Denmark. The tissue was chopped in 0.4 mm cubes and the triturated with trypsin (12.5 μg/ml) and DNAse (2.5 μg/ml), 15 minutes, 37° C. The cells were suspended at a concentration of 1×10^6 cells/ml in a slightly modified DMEM containing horse serum (10% (v/v)), penicillin (333 U/ml), paraaminobenzoic acid (1 μg/ml), L-glutamine (0.5 mM), insulin (0.08 U/ml) and KCl (23.8 mM). Horse serum, N2 supplement and culture media were purchased from Life Technologies (GIBCO), Roskilde, Denmark.
The cell suspension was subsequently inoculated into poly-L-lysine coated 35 mm Petri dishes (2 ml/dish). Glass coverslips (3.5 mm) were placed in the dishes before coating. After 24 hours in culture, the medium was replaced by freshly made medium containing 1% N2 supplement instead of serum.
The cells were kept in culture for 7–14 days at 37° C. (5% CO2/95% O2) before experiments were carried out.
Electronics, programs and data acquisition: The amplifier used was the EPC-9 (HEKA-electronics, Lambrect, Germany) run by a Power Macintosh G3 computer via an ITC-16 interface. Experimental conditions were set with the Pulse-software accompanying the amplifier. Data were low pass filtered and sampled directly to hard-disk at a rate of 3 times the cut-off frequency.
Pipettes and electrodes: Pipettes were pulled from borosilicate glass (Modulohm, Copenhagen, Denmark) using a horizontal electrode puller (Zeitz-Instrumente, Augsburg, Germany). The pipette resistances were 1.7–2.4 MΩ in the salt solutions used in these experiments. The pipette electrode was a chloridized silver wire, and the reference was a silverchloride pellet electrode (In Vivo Metric, Healdsburg, USA) fixed to the experimental chamber. The electrodes were zeroed with the open pipette in the bath just prior to sealing.
Experimental procedure: Coverslips were transferred to a 15 μl experimental chamber mounted on the stage of an inverted microscope (IMT-2, Olympus) supplied with Nomarski optics. The neurons were continuously superfused with extracellular saline at a rate of 2.5 ml/min. After giga-seal formation (1–5 GΩ, success-rate≈90%) the whole cell configuration was attained by suction.
The cells were held at a holding voltage of −60 mV, and at the start of each experiment the current was continuously measured for at least 30 seconds to ensure a stable leak current.
AMPA-containing solutions were delivered to the chamber through a custom-made gravity-driven flowpipe, the tip of which was placed approximately 50 μm from the cell. […]

**Q.** Which melting point does the source give for `CN1CCN(S(=O)(=O)c2ccc3c(c2)S(=O)(=O)NC(C2CCCC2)C3)CC1.Cl` (racemic) here?
**A.** 234 to 236 °C

**Q.** Which “concentration dependence of the potentiating effect” value (AMPA receptor) does the source give for `CN1CCN(S(=O)(=O)c2ccc3c(c2)S(=O)(=O)NC(C2CCCC2)C3)CC1` (racemic) [Compound 23a, (3RS)-3-Cyclopentyl-7-(4-methyl-piperazine-1-sulfonyl)-3,4-dihydro-2H-benzo[e][1,2]thiazine-1,1-dioxide] here?
**A.** concentration-dependent

**Q.** What about the “effect on the current induced by application of 30 μM AMPA” value (“effect on the current induced” below) (AMPA receptor) of the same compound?
**A.** potentiate the current induced by application of 30 μM AMPA

**Q.** For `Cc1cc2c(cc1S(=O)(=O)N1CCOCC1)S(=O)(=O)NC(C1CCCC1)C2` (racemic) [Compound 26, (3RS)-3-Cyclopentyl-6-methyl-7-(morpholine-4-sulfonyl)-3,4-dihydro-2H-benzo[e][1,2]thiazine-1,1-dioxide], which “effect on the current induced” value (AMPA receptor) is on record?
**A.** potentiate the current induced by application of 30 μM AMPA

**Q.** Which melting point does the source give for `Cc1cc2c(cc1S(=O)(=O)N1CCN(C)CC1)S(=O)(=O)NC(C1CCCC1)C2.Cl` (racemic) here?
**A.** 251 °C (dec.)

**Q.** For `CN1CCN(S(=O)(=O)c2ccc3c(c2)S(=O)(=O)NC(C2CCCCC2)C3)CC1` (racemic) [Compound 24, (3RS)-3-Cyclohexyl-7-(4-methyl-piperazine-1-sulfonyl)-3,4-dihydro-2H-benzo[e][1,2]thiazine-1,1-dioxide], which “effect on the current induced” value (AMPA receptor) is on record?
**A.** potentiate the current induced by application of 30 μM AMPA

**Q.** For `O=S1(=O)NC(C2CCCCC2)Cc2ccc(S(=O)(=O)N3CCCCC3)cc21` (racemic) [Compound 21, (3RS)-3-Cyclohexyl-7-(piperidine-1-sulfonyl)-3,4-dihydro-2H-benzo[e][1,2]thiazine-1,1-dioxide], which “effect on the current induced” value (AMPA receptor) is on record?
**A.** potentiate the current induced by application of 30 μM AMPA

**Q.** With `Cc1cc2c(cc1S(=O)(=O)N1CCCCC1)S(=O)(=O)NC(C1CCCC1)C2` (racemic) [Compound 25, (3RS)-3-Cyclopentyl-6-methyl-7-(piperidine-1-sulfonyl)-3,4-dihydro-2H-benzo[e][1,2]thiazine-1,1-dioxide] as the compound, how does the “effect on the current induced” value (AMPA receptor) read?
**A.** potentiate the current induced by application of 30 μM AMPA

**Q.** Which “concentration dependence of the potentiating effect” value (AMPA receptor) does the source give for `Cc1cc2c(cc1S(=O)(=O)N1CCN(C)CC1)S(=O)(=O)NC(C1CCCC1)C2` (racemic) [Compound 27a, (3RS)-3-Cyclopentyl-6-methyl-7-(4-methyl-piperazine-1-sulfonyl)-3,4-dihydro-2H-benzo[e][1,2]thiazine-1,1-dioxide] here?
**A.** concentration-dependent

**Q.** What about the “effect on the current induced” value (AMPA receptor) of the same compound?
**A.** potentiate the current induced by application of 30 μM AMPA

**Q.** Which “effect on the current induced” value (AMPA receptor) does the source give for `O=S1(=O)NC(C2CCCC2)Cc2ccc(S(=O)(=O)N3CCCCC3)cc21` (racemic) [Compound 22, (3RS)-3-Cyclopentyl-7-(piperidine-1-sulfonyl)-3,4-dihydro-2H-benzo[e][1,2]thiazine-1,1-dioxide] here?
**A.** potentiate the current induced by application of 30 μM AMPA
